Test results published in patent publication US6440984B1, “Use of aryl-substituted pyrimidines as insecticidal and acaricidal agents” (BASF Aktiengesellschaft, priority 1998, dated 2002).

Tests used:
Type in all cases: in vivo
[1] = tested on: Diabrotica Virgifera Virgifera Leconte, 3rd Instar Western Corn Rootworm (WCR); experiment: Western corn rootworm (WCR) soil test, mortality at 5 days; details: rating scale; for pest or weed control at 50 ppm: Diabrotica virgifera, 120 h, read-out: WCR 2^ND-SOIL 50 (ppm)
Procedure: Diabrotica Virgifera Virgifera Leconte, 3rd Instar Western Corn Rootworm (WCR) One cc of fine talc is placed in a 30 mL wide-mouth screw-top glass jar. One mL of the appropriate acetone test solution is pipetted onto the talc so as to provide 1.25 mg of active ingredient per jar. The jars are set under a gentle air flow until the acetone is evaporated. The dried talc is loosened, 1 cc of millet seed is added to serve as food for the insects and 25 mL of moist soil is added to each jar. The jar is capped and the contents thoroughly mixed mechanically. Following this, ten 3rd instar rootworms are added to each jar and the jars are loosely capped to allow air exchange for the larvae. The treatments are held for 5 days when mortality counts are made. Missing larvae are presumed dead, since they decompose rapidly and can not be found. The concentrations of active ingredient used in this test correspond approximately to 50 kg/ha.

[2] = tested on: Tetranychus Urticae (OP-resistant strain), 2-spotted Spider Mite (TSM); experiment: Two-spotted spider mite (TSM) plant-dip test, mortality after 2 days; details: rating scale; for pest or weed control at 300 ppm: Tetranychus urticae, 48 h, read-out: TSM AD-FOLIAR 300 (ppm)
Procedure: (§1) Test solutions are prepared by dissolving the test compound in a 35% acetone in water mixture to give a concentration of 10,000 ppm. Subsequent dilutions are made with water as needed.
Tetranychus Urticae (OP-resistant strain), 2-spotted Spider Mite (TSM)
Sieva lima bean plants with primary leaves expanded to 7-8 cm are selected and cut back to one plant per pot. A small piece is cut from an infested leaf taken from the main colony and placed on each leaf of the test plants. This is done about 2 hours before treatment to allow the mites to move over to the test plant to lay eggs. The size of the cut, infested leaf is varied to obtain about 100 mites per leaf. At the time of test treatment, the piece of leaf used to transfer the mites is removed and discarded. The newly-infested plants are dipped in the test solution for 3 seconds with agitation and set in the hood to dry. After 2 days, one leaf is removed and mortality counts are made.

[3] = tested on: Spodoptera Eridania, 3rd Instar Larvae, Southern Armyworm (SAW); experiment: Southern armyworm (SAW) leaf-dip test, observations at 5 days; details: Southern Army Worm, rating scale; for pest or weed control at 1000 ppm: Spodoptera eridania, foliar, 120 h, read-out: SAW 2^ND-FOLIAR 1000 (ppm)
Procedure: as §1
Spodoptera Eridania, 3rd Instar Larvae, Southern Armyworm (SAW)
A Sieva lima bean leaf expanded to 7-8 cm in length is dipped in the test solution with agitation for 3 seconds and allowed to dry in a hood. The leaf is then placed in a 100×10 mm petri dish containing a damp filter paper on the bottom and ten 3rd instar caterpillars. At 5 days, observations are made of mortality, reduced feeding, or any interference with normal molting.

[4] = tested on: Aphis Fabae, Mixed Instar, Bean Aphid (BA); experiment: Bean aphid (BA) foliar spray test, mortality after 2 days; details: rating scale; for pest or weed control at 300 ppm: Aphis fabae, 48 h, read-out: BA AD-FOLIAR 300 (ppm)
Procedure: as §1
Aphis Fabae, Mixed Instar, Bean Aphid (BA)
Pots containing single nasturtium plants (Tropaeolum sp.) about 5 cm tall are infested with about 100-200 aphids one day before the test. Each pot is sprayed with the test solution for 2 revolutions of a 4 rpm turntable in a hood. The spray is directed to give complete coverage of the plants and aphids. The sprayed pots are set on their sides on white trays and held for 2 days, following which mortality estimates are made. Essentially the same method is used with respect to cotton aphid (CA).

## FC(F)(F)c1ccc(Oc2nccc(-c3ccccc3)n2)cc1Cl [Compound 7]
[1]
  WCR 2^ND-SOIL 50 (ppm): C (C 76-100% kill)

## FC(F)(F)c1cccc(-c2ccnc(Oc3ccc(Cl)c(Cl)c3)n2)c1 [Compound 18]
[2]
  TSM AD-FOLIAR 300 (ppm): A (A 0-45% kill)
[3]
  SAW 2^ND-FOLIAR 1000 (ppm): A (A 0-45% kill)
[4]
  BA AD-FOLIAR 300 (ppm): A (A 0-45% kill)

## O=[N+]([O-])c1ccc(Oc2nccc(-c3cccc(C(F)(F)F)c3)n2)cc1C(F)(F)F [Compound 19]
[1]
  WCR 2^ND-SOIL 50 (ppm): C (C 76-100% kill)
[4]
  BA AD-FOLIAR 300 (ppm): A (A 0-45% kill)

## CC(C)(C)c1ccc(-c2ccnc(Oc3ccc(F)c(C(F)(F)F)c3)n2)cc1 [Compound 24]
[1]
  WCR 2^ND-SOIL 50 (ppm): C (C 76-100% kill)
[4]
  BA AD-FOLIAR 300 (ppm): A (A 0-45% kill)

## CC(C)(C)c1ccc(-c2ccnc(Oc3ccc(Cl)c(Cl)c3)n2)cc1 [Compound 27]
[1]
  WCR 2^ND-SOIL 50 (ppm): C (C 76-100% kill)
[4]
  BA AD-FOLIAR 300 (ppm): B (B 45-75% kill)

## Fc1ccc(Oc2nccc(-c3ccc(C(F)(F)F)cc3)n2)cc1C(F)(F)F [Compound 29]
[2]
  TSM AD-FOLIAR 300 (ppm): B (B 45-75% kill)
[3]
  SAW 2^ND-FOLIAR 1000 (ppm): A (A 0-45% kill)
[4]
  BA AD-FOLIAR 300 (ppm): A (A 0-45% kill)

## FC(F)(F)c1ccc(-c2ccnc(Oc3cccc(C(F)(F)F)c3)n2)cc1 [Compound 30]
[2]
  TSM AD-FOLIAR 300 (ppm): B (B 45-75% kill)
[3]
  SAW 2^ND-FOLIAR 1000 (ppm): A (A 0-45% kill)
[4]
  BA AD-FOLIAR 300 (ppm): A (A 0-45% kill)

## COc1ccc(-c2ccnc(Oc3ccc(Cl)c(C(F)(F)F)c3)n2)cc1 [Compound 35]
[1]
  WCR 2^ND-SOIL 50 (ppm): C (C 76-100% kill)

## Fc1ccc(Oc2nccc(-c3ccc(OC(F)(F)F)cc3)n2)cc1C(F)(F)F [Compound 47]
[2]
  TSM AD-FOLIAR 300 (ppm): B (B 45-75% kill)
[3]
  SAW 2^ND-FOLIAR 1000 (ppm): A (A 0-45% kill)
[4]
  BA AD-FOLIAR 300 (ppm): A (A 0-45% kill)

## FC(F)(F)Oc1ccc(-c2ccnc(Oc3cccc(C(F)(F)F)c3)n2)cc1 [Compound 48]
[2]
  TSM AD-FOLIAR 300 (ppm): B (B 45-75% kill)
[3]
  SAW 2^ND-FOLIAR 1000 (ppm): A (A 0-45% kill)
[4]
  BA AD-FOLIAR 300 (ppm): B (B 45-75% kill)

## O=[N+]([O-])c1ccc(Oc2nccc(-c3ccc(OC(F)(F)F)cc3)n2)cc1C(F)(F)F [Compound 49]
[2]
  TSM AD-FOLIAR 300 (ppm): B (B 45-75% kill)
[4]
  BA AD-FOLIAR 300 (ppm): B (B 45-75% kill)

## FC(F)(F)Oc1ccc(-c2ccnc(Oc3ccc(Cl)c(Cl)c3)n2)cc1 [Compound 50]
[1]
  WCR 2^ND-SOIL 50 (ppm): C (C 76-100% kill)
[3]
  SAW 2^ND-FOLIAR 1000 (ppm): A (A 0-45% kill)
[4]
  BA AD-FOLIAR 300 (ppm): B (B 45-75% kill)

## Fc1cc(-c2ccnc(Oc3ccc(Cl)c(C(F)(F)F)c3)n2)cc(C(F)(F)F)c1 [Compound 51]
[1]
  WCR 2^ND-SOIL 50 (ppm): C (C 76-100% kill)
[3]
  SAW 2^ND-FOLIAR 1000 (ppm): B (B 45-75% kill)

## Fc1cc(-c2ccnc(Oc3ccccc3)n2)cc(C(F)(F)F)c1 [Compound 54]
[2]
  TSM AD-FOLIAR 300 (ppm): C (C 76-100% kill)
[3]
  SAW 2^ND-FOLIAR 1000 (ppm): C (C 76-100% kill)
[4]
  BA AD-FOLIAR 300 (ppm): C (C 76-100% kill)

## Fc1cc(-c2ccnc(Oc3ccc(F)c(Cl)c3)n2)cc(C(F)(F)F)c1 [Compound 56]
[1]
  WCR 2^ND-SOIL 50 (ppm): B (B 45-75% kill)

## O=[N+]([O-])c1ccc(Oc2nccc(-c3cc(F)cc(C(F)(F)F)c3)n2)cc1C(F)(F)F [Compound 57]
[1]
  WCR 2^ND-SOIL 50 (ppm): C (C 76-100% kill)

## Fc1cc(-c2ccnc(Oc3cc(Cl)cc(Cl)c3)n2)cc(C(F)(F)F)c1 [Compound 59]
[1]
  WCR 2^ND-SOIL 50 (ppm): C (C 76-100% kill)
[4]
  BA AD-FOLIAR 300 (ppm): B (B 45-75% kill)

## Fc1cc(-c2ccnc(Oc3cc(C(F)(F)F)cc(C(F)(F)F)c3)n2)cc(C(F)(F)F)c1 [Compound 60]
[1]
  WCR 2^ND-SOIL 50 (ppm): C (C 76-100% kill)
[3]
  SAW 2^ND-FOLIAR 1000 (ppm): C (C 76-100% kill)

## CSc1cc(-c2ccc(Cl)c(Cl)c2)nc(Oc2ccc(F)c(C(F)(F)F)c2)n1 [Compound 85, 2-(3-Trifluoromethyl-4-fluorophenoxy)-4-(3,4-dichlorophenyl)-6-thiomethylpyrimidine]
[1]
  pest or weed control at 50 ppm: 76 to 100%

## CS(=O)(=O)c1cc(-c2ccc(Cl)c(Cl)c2)nc(Oc2ccc(F)c(C(F)(F)F)c2)n1 [Compound 92, 2-(3-trifluoromethyl-4-fluorophenoxy)-4-(3,4-dichlorophenyl)-6-methylsulfonylpyrimidine]
[1]
  pest or weed control at 50 ppm: 76 to 100%

## CSc1cc(-c2ccc(Cl)cc2)nc(Oc2ccc(F)c(C(F)(F)F)c2)n1 [Compound 114]
[1]
  pest or weed control at 50 ppm: 76 to 100%

## Fc1ccc(Oc2nccc(-c3ccc(Cl)cc3)n2)cc1C(F)(F)F [Compound 115]
[2]
  pest or weed control at 300 ppm: 45 to 75%
[3]
  pest or weed control at 1000 ppm: 0 to 45%

## FC(F)(F)c1cccc(Oc2nccc(-c3ccc(Cl)cc3)n2)c1 [Compound 116]
[2]
  pest or weed control at 300 ppm: 45 to 75%
[3]
  pest or weed control at 1000 ppm: 0 to 45%

## CSc1cc(-c2cccc(Cl)c2)nc(Oc2ccc(Cl)c(C(F)(F)F)c2)n1 [Compound 125]
[1]
  WCR 2^ND-SOIL 50 (ppm): B (B 45-75% kill)

## FC(F)(F)c1cccc(Oc2nccc(-c3ccccc3)n2)c1 [Compound 128]
[2]
  pest or weed control at 300 ppm: 76 to 100%
[4]
  pest or weed control at 300 ppm: 45 to 75%

## Fc1ccc(Oc2nccc(-c3ccc(C(F)(F)F)cc3)n2)cc1C(F)(F)F [Compound 129]
[1]
  pest or weed control at 50 ppm: 45 to 75%
[3]
  pest or weed control at 1000 ppm: 0 to 45%
[4]
  pest or weed control at 300 ppm: 45 to 75%

## CCc1cnc(Oc2cccc(C(F)(F)F)c2)nc1-c1ccc(Cl)cc1 [Compound 131]
[1]
  pest or weed control at 50 ppm: 76 to 100%
[3]
  pest or weed control at 1000 ppm: 0 to 45%

## CCc1cnc(Oc2ccc(F)c(C(F)(F)F)c2)nc1-c1ccc(Cl)cc1 [Compound 132]
[2]
  pest or weed control at 300 ppm: 45 to 75%
[3]
  pest or weed control at 1000 ppm: 0 to 45%
[4]
  pest or weed control at 300 ppm: 76 to 100%

## Fc1ccc(-c2ccnc(Oc3ccc(C(F)(F)F)c(F)c3)n2)cc1 [Compound 135]
[2]
  pest or weed control at 300 ppm: 0 to 45%
[3]
  pest or weed control at 1000 ppm: 0 to 45%
[4]
  pest or weed control at 300 ppm: 0 to 45%

## Fc1ccc(-c2ccnc(Oc3cccc(C(F)(F)F)c3)n2)cc1 [Compound 136]
[2]
  pest or weed control at 300 ppm: 0 to 45%
[3]
  pest or weed control at 1000 ppm: 0 to 45%

## Fc1ccc(Oc2nccc(-c3ccc(Cl)cc3)n2)cc1F [Compound 139]
[1]
  pest or weed control at 50 ppm: 76 to 100%
[4]
  pest or weed control at 300 ppm: 76 to 100%

## O=[N+]([O-])c1cccc(Oc2nccc(-c3ccc(Cl)cc3)n2)c1 [Compound 140]
[2]
  pest or weed control at 300 ppm: 45 to 75%
[4]
  pest or weed control at 300 ppm: 0 to 45%

## Cc1ccc(-c2ccnc(Oc3cccc(C(F)(F)F)c3)n2)cc1 [Compound 147]
[2]
  pest or weed control at 300 ppm: 76 to 100%
[4]
  pest or weed control at 300 ppm: 76 to 100%

## Fc1ccc(Oc2nccc(-c3ccc(Cl)cc3)n2)cc1Cl [Compound 150]
[2]
  pest or weed control at 300 ppm: 76 to 100%
[4]
  pest or weed control at 300 ppm: 45 to 75%

## CCc1cnc(Oc2ccc(F)c(C(F)(F)F)c2)nc1-c1cccc(C(F)(F)F)c1 [Compound 156]
[2]
  pest or weed control at 300 ppm: 45 to 75%
[3]
  pest or weed control at 1000 ppm: 0 to 45%
[4]
  pest or weed control at 300 ppm: 76 to 100%

## CCc1cnc(Oc2ccc(Cl)c(C(F)(F)F)c2)nc1-c1cccc(C(F)(F)F)c1 [Compound 158]
[1]
  pest or weed control at 50 ppm: 76 to 100%
[3]
  pest or weed control at 1000 ppm: 0 to 45%

## CCCc1cnc(Oc2cccc(C(F)(F)F)c2)nc1-c1cccc(C(F)(F)F)c1 [Compound 159]
[2]
  pest or weed control at 300 ppm: 45 to 75%
[3]
  pest or weed control at 1000 ppm: 0 to 45%
